Measurements from patent US20100255020A1, “METHOD FOR INDUCING CYTOTOXIC T-CELLS, CYTOTOXIC T-CELL INDUCERS, AND PHARMACEUTICAL COMPOSITIONS AND VACCINES EMPLOYING THEM” (NEC CORPORATION, priority 2007, published 2010).
Where no end group is shown, it is not given here.

Key:
malignant tumors = test: Peptide immunotherapy of patients, tumor response by RECIST criteria (CT/MRI); assay type: in vivo, human; design: key to RECIST, single lung metastasis / RECIST, total sum of longest diameters of 10 metastatic target lesions / RECIST, pubic bone metastatic tumor / RECIST determination 3 months after starting W10 peptide therapy: CR: all target lesions have disappeared; PR: the sum of the longest diameters of the target lesions decreases by at least 30%; PD: the sum of the longest diameters of the target lesions increases by at least 20%; SD: the change of tumr size is between PR or PD
Method: Among 18 patients, 3 people are illustrated in the style of case reports. […] The mixture was prepared immediately prior to administration. When W10 peptide was administered without petussis vaccine in the safety test, W10 peptide solution was divided into 4 equal portions and injected intradermally at 4 locations in the same manner. A method to measure the diameter of a tumor and a method to analyze peptide-specific T-cells using an HLA-A24 tetramer by flow cytometry are described below.
The international RECIST criteria referred to here is an evaluation standard described in Theresse, P. et al., J Natl Cancer Inst. 2000, 92, 205-216. When there is confirmation by helical CT or MRI that all target lesions have disappeared this is defined as CR (complete response), when the sum of the longest diameters of the target lesions decreases by at least 30% this is defined as PR (partial response), when the sum of the longest diameters of the target lesions increases by at least 20% this is defined as PD (progressive disease), and when the change of tumr size is between PR or PD this is defined as SD (stable disease). However, regardless of the presence or absence of a change in the target lesions, when even one new lesion appears this is defined as PD.
Based on the above-mentioned international RECIST criteria, which is used for evaluation of anticancer drugs, all measurable tumors were selected as target tumors, and change in the SLD of the tumors over the course of the therapy was monitored. In addition, number of all the tumors was counted, regardless of the size of a tumor, every time diagnostic imaging was carried out in order to lookout for new lesions. Diagnostic imaging was carried out in principle once a month by helical CT or MRI. If even one new metastasis appeared, regardless of the change in the primary lesion, it was judged as PD.
Clinical responses were evaluated according to the aforementioned international RECIST criteria for 18 patients who had been treated by immunotherapy using W10+Wc for at least 3 months and one week. Eight cased out of 18 patients were judged as SD, 10 cased were PD. […] In reports on peptide immunotherapy so far, the tumor control rate was limited to a few % up to ten or so % worldwide (Reference Documents 1 to 4). Compared with these already reported cases, this is a good reaction.

[1] = tested on: HLA-A*2402 positive cell lines that express WT1 naturally (KAZZ, KCL22, KH88, MEG01); test: Reactivity of WT1 peptide-specific cell lines toward tumor cells (IFN-γ ELISPOT); assay type: cell-based, human; conditions: cell lines established from HLA-A*2402 positive patients, FIG. 5
From the text: Reactions of cell lines established from different patients are arranged in a bar graph.

[2] = tested on: peptide-loaded target cells (C1R-A24, RA24, T2); test: 51Cr release assay of PBMC killing activity against peptide-loaded target cells; assay type: cell-based, human
Method: Target cells were labeled with ^51Cr and loaded with HLA-binding peptide of interest. 5,000 or 10,000 cells/well of target cells were placed in 96-well U-bottom plate, and then, PBMCs having been stimulated twice in vitro were added thereto as a responder. Cells were incubated at 37° C. for 5 hours and ^51Cr released from the damaged cells during the incubation was measured, and % specific lysis was calculated. As target cells C1R-A24 or RA24 cells were used as a target when reactivity to HLA-A*2402 binding peptides were examined, and T2 cells were used as a target and incubation was carried out for 2 hours after addition of responder cells. Percent specific lysis was calculated as follows. % specific lysis=(test release-spontaneous release)/(total release-spontaneous release)×100.

HLA-A*0206 molecule = target: T1, HLA-A*0206 molecule (Homo sapiens, UniProt P04439, D140Y/D185E/D98H/E176V/E277Q/F33Y/G131W/G231S/I119V/I121R/I166T/I218V/L300P/L318F/N151K/N90K/P208A/P217A/Q86G/Q94H/R138H/R169H/T345S); test: Peptide binding to HLA-A*0206 molecule on RA2.6 cells (flow cytometry, Kd); conditions: HLA-A*0206, RA2.6 cells; read-out: Binding assay data (−log Kd) (converted)
T1 construct: expressed in transfected cells; host or cells: RA2.6 (mouse TAP-deficient RMAS cells transfected with pMKITneo bearing HLA-A*0206 cDNA)
Method: The ability of a peptide to bind to an HLA-A*0206 molecule, which is a product of the HLA-A*0206 gene, was measured using RA2.6 cells (cell line newly generated in Kochi University), wherein cDNA of the HLA-A*0206 gene is introduced into RMAS, which is a mouse TAP (transporter associated with antigen processing)-deficient cell line.
RA2.6 cells were first cultured overnight at 26° C., during this incubation HLA-A*0206 molecules devoid of bound peptide accumulated. Serial dilutions of peptide were added to these cells and peptide binding was carried out at room temperature for 30 minutes.
Subsequently, culture was carried out at 37° C. for 3.5 hours, during this incubation empty HLA-A*0206 molecules to which no peptide was bound were denatured, and the tertiary structure was lost.
The cells were stained by adding thereto fluorescently-labeled monoclonal antibody BB7.2, which specifically recognizes the peptide-bound HLA-A*0206 molecule, and incubating on ice for 20 minutes.
Subsequently, the amount of fluorescence per cell was measured using a flow cytometer, and a dissociation constant Kd value was calculated by a method published in the literature (Udaka et al., Immunogenetics, 51, 816-828, 2000).

HLA-A*2402 molecule = HLA-A*2402 molecule (Homo sapiens, UniProt P04439, D101N/D140Y/D185E/E176V/E190D/F33S/G103R/G107R/I119L/I121M/I306V/K335N/L105A/L180Q/L300P/N151K/N90K/Q86E/Q94H/R106L/R138H/R89G/T104I/T345S/V100E/W191G/Y123F); test: Peptide binding to HLA-A*2402 molecule on C1R-A24 cells (flow cytometry, Kd); conditions: HLA-A*2402, C1R-A24 cells; read-out: Binding assay data (−log Kd) (converted)
Method: The ability of a peptide to bind to an HLA-A*2402 molecule, which is a product of the HLA-A*2402 gene, was measured using C1R-A24 cells expressing the HLA-A*2402 molecule (cells generated by Professor Masafumi Takiguchi, Kumamoto University being supplied with permission by Associate Professor Masaki Yasukawa, Ehime University).
C1R-A24 cells were first exposed to acidic conditions at a pH of 3.3 for 30 seconds, thus dissociating and removing a β2m light chain, which is associated with HLA class I molecules in common, and an endogenous peptide originally bound to the HLA-A*2402 molecule. After neutralization, purified β2m was added to C1R-A24 cells, the obtained product was added to serial dilutions of a peptide, and incubated on ice for 4 hours. […]
Subsequently, the number of MHC-pep complexes per C1R-A24 cell (proportional to the intensity of fluorescence of the above-mentioned fluorescent antibody) was quantitatively measured using a FACScan fluorescence-activated flow cytometer (Becton Dickinson Biosciences). A dissociation constant Kd value between the HLA-A*2402 molecule and the peptide was calculated from the average intensity of fluorescence per cell by a method published in the literature (Udaka et al., Immunogenetics, 51, 816-828, 2000).

HLA-A*0201 molecule = HLA-A*0201 molecule (Homo sapiens, UniProt P04439, D140Y/D185E/D98H/E176V/E277Q/G131W/G231S/I119V/I121R/I166T/I218V/L300P/L318F/N151K/N90K/P208A/P217A/Q86G/Q94H/R138H/R169H/T345S); test: Peptide binding to HLA-A*0201 molecule on JY cells (flow cytometry, Kd); conditions: HLA-A*0201, JY cells; read-out: Binding assay data (−log Kd) (converted)
Method: The ability of a peptide to bind to an HLA-A*0201 molecule, which is a product of the HLA-A*0201 gene, was measured using strain JY cells expressing the HLA-A*0201 molecule.
JY cells were first exposed to acidic conditions at a pH of 3.8 for 30 seconds, thus dissociating and removing a β2m light chain and an endogenous peptide, which were noncovalently associated with the HLA-A* 0201 molecule. After neutralization, a reconstitution experiment was carried out.
The above-mentioned JY cells and the purified […] were added to serial dilutions of peptide for which the binding ability needs to be measured, and incubation was carried out on ice for 4 hours. HLA-A*0201 molecules that had reassociated up to this time point were stained using the fluorescently-labeled monoclonal antibody BB7.2, a conformation dependent monoclonal Ab specific for an assembled form of HLA-A*0201 molecule.
Subsequently, the amount of fluorescence per cell was measured using a flow cytometer and a dissociation constant Kd value was calculated by a method published in the literature (Udaka et al., Immunogenetics, 51, 816-828, 2000).

[3] = HLA-A*2402 binding peptides, FIG. 9a and b

Sequence | Effect of immunotherapy on tumor (malignant tumors; patient KB07-005, prostate cancer, 235Y from December 2006) | Primary tumor by MRI (malignant tumors; patient KB07-006, 3 mg 235Y emulsified with Montanide, weekly intradermal, 4th week) | RECIST, single lung metastasis (malignant tumors; patient KB07-006, 235Y immunization for 10 months) | Primary tumor on continued immunization (malignant tumors; patient KB07-006, 235Y weekly, no recurrence at three and a half years) | Reactivity of peptide-dependent cell line toward WT1-expressing cell lines compared with C1R-A24 [1] | Peptide-reactive cytolytic cells in PBMCs of patients [2, 3] | Kd (HLA-A*0206 molecule) [nM] | Kd (HLA-A*2402 molecule) [nM] | Kd (HLA-A*0201 molecule) [nM] | Peptide-reactive cytolytic cells in PBMCs of patients ([2]; HLA-A*0201 binding peptides, T2 targets)
CYTWNQMNL (listed as Homo sapiens) [235Y, reference compound] | no effect | apparent reduction of the primary tumor | SD | disappeared | tends to be higher although differences are small | cytolytic cells include those reactive | – | – | – | –
GVFRGIQDV [W292] | – | – | – | – | – | – | 331 | – | – | –
RVPGVAPTL [W302] | – | – | – | – | tends to be higher although differences are small | cytolytic cells include those reactive | 245 | 21.4 | 389 | contain cytolytic cells that recognize
